Results as given in ChEMBL document CHEMBL3526110, “Preclinical evaluation of the metabolism and disposition of RRx-001, a novel investigative anticancer agent” (Drug Metab Dispos, 2012).

How the values were obtained:
[1] = Stability in pH 7.0 buffer; type: physicochemical
Nucleic Acid = test: Ratio of drug level in blood to plasma in Wistar Hanover rat at 10 mg/kg, iv administered as single dose after 168 hrs; type: ADME, organism-based; design: dose 10 mg/kg, route intravenous; settings: in vivo
Blood [2] = test: Drug metabolism in human whole blood assessed as [(R)-2-amino-3-((2-(3-nitroazetidin-1-yl)-2-oxoethyl)thio)propanoic acid] formation at 20 uM by LC-MS/MS method; type: ADME, tissue-based
[3] = Drug excretion in Wistar Hanover rat urine at 10 mg/kg, iv administered as single dose after 168 hrs; type: ADME, organism-based; design: dose 10 mg/kg, route intravenous; settings: read-out: Drug excretion
[4] = Drug excretion in Wistar Hanover rat urine at 10 mg/kg, iv administered as single dose after 0 to 8 hrs; type: ADME, organism-based; design: dose 10 mg/kg, route intravenous; settings: read-out: Drug excretion
[5] = Binding affinity to human hemoglobin assessed as protein bound compound level at 20 uM; type: ADME; settings: read-out: PB (converted)
[6] = Drug excretion in Wistar Hanover rat feces at 10 mg/kg, iv administered as single dose measured on day 2; type: ADME, organism-based; design: dose 10 mg/kg, route intravenous; settings: faeces, read-out: Drug excretion
Blood [7] = test: Drug metabolism in rat whole blood assessed as [(S)-2-amino-5-(((R)-1-((carboxymethyl)amino)-3-((2-(3-(hydroxyimino)azetidin-1-yl)-2-oxoethyl)thio)-1-oxopropan-2-yl)amino)-5-oxopentanoic acid] formation at 20 uM by LC-MS/MS method; type: ADME, tissue-based
[8] = Ratio of drug level in rat blood to rat plasma at 20 uM after 30 mins; type: ADME, cell-free; settings: whole blood
Blood [9] = test: Retention time in rat whole blood at 20 uM by LC-MS/MS method; type: ADME, tissue-based
[10] = Binding affinity to rat hemoglobin assessed as protein bound compound level at 1 uM; type: ADME; settings: read-out: PB (converted)
[11] = Stability in water; type: physicochemical; settings: buffer
[12] = Binding affinity to monkey hemoglobin assessed as protein bound compound level at 1 uM; type: ADME, Macaca mulatta; settings: rhesus monkey, read-out: PB (converted)
Blood [13] = test: Retention time in rat whole blood in presence of 0.1% formic acid in acetonitrile at 20 uM by LC-MS/MS method; type: ADME, tissue-based
Blood [14] = test: Drug metabolism in rat whole blood assessed as [(S)-2-amino-5-(((R)-1-((carboxymethyl)amino)-3-((2-(3,3-dinitroazetidin-1-yl)-2-oxoethyl)thio)-1-oxopropan-2-yl)amino)-5-oxopentanoic acid] formation at 20 uM by LC-MS/MS method; type: ADME, tissue-based
Blood [15] = test: Drug metabolism in human whole blood assessed as [(S)-2-amino-5-(((R)-1-((carboxymethyl)amino)-1-oxo-3-((2-oxo-2-(3-oxoazetidin-1-yl)ethyl)thio)propan-2-yl)amino)-5-oxopentanoic acid] formation at 20 uM by LC-MS/MS method; type: ADME, tissue-based
[16] = Binding affinity to rat hemoglobin assessed as protein bound compound level at 20 uM; type: ADME; settings: read-out: PB (converted)
Blood [17] = test: Drug metabolism in rat whole blood assessed as [(S)-2-amino-5-(((R)-1-((carboxymethyl)amino)-1-oxo-3-((2-oxo-2-(3-oxoazetidin-1-yl)ethyl)thio)propan-2-yl)amino)-5-oxopentanoic acid] formation at 20 uM by LC-MS/MS method; type: ADME, tissue-based
[18] = Binding affinity to human hemoglobin assessed as protein bound compound level at 1 uM; type: ADME; settings: read-out: PB (converted)
Blood [19] = test: Drug metabolism in human whole blood assessed as [(R)-2-(2-amino-3-((2-(3,3-dinitroazetidin-1-yl)-2-oxoethyl)thio)propanamido)acetic acid] formation at 20 uM by LC-MS/MS method; type: ADME, tissue-based
Blood [20] = test: Drug metabolism in human whole blood assessed as (R)-2-amino-3-((2-(3,3-dinitroazetidin-1-yl)-2-oxoethyl)thio)propanoic acid] formation at 20 uM by LC-MS/MS method; type: ADME, tissue-based
Blood [21] = test: Drug metabolism in rat whole blood assessed as (R)-2-amino-3-((2-(3,3-dinitroazetidin-1-yl)-2-oxoethyl)thio)propanoic acid] formation at 20 uM by LC-MS/MS method; type: ADME, tissue-based
[22] = Ratio of drug level in dog blood to dog plasma at 20 uM after 30 mins; type: ADME, Canis lupus familiaris; settings: whole blood
Blood [23] = test: AUC (0 to t) in Wistar Hanover rat blood at 10 mg/kg, iv administered as single dose; type: ADME, organism-based; design: dose 10 mg/kg, route intravenous; settings: in vivo
[24] = Ratio of drug level in blood to plasma in Wistar Hanover rat at 10 mg/kg, iv administered as single dose after 0.083 hrs; type: ADME, organism-based; design: dose 10 mg/kg, route intravenous; settings: whole blood and plasma
[25] = Drug excretion in Wistar Hanover rat feces at 10 mg/kg, iv administered as single dose measured on day 1; type: ADME, organism-based; design: dose 10 mg/kg, route intravenous; settings: faeces, read-out: Drug excretion
[26] = Volume of distribution in Wistar Hanover rat blood at 10 mg/kg, iv administered as single dose; type: ADME, organism-based; design: dose 10 mg/kg, route intravenous; settings: whole blood
Stomach = test: Drug level in Wistar Hanover rat stomach at 10 mg/kg, iv administered as single dose after 24 hrs; type: ADME, organism-based; design: dose 10 mg/kg, route intravenous; settings: in vivo
Blood [27] = test: Drug metabolism in rat whole blood assessed as [(R)-2-(2-amino-3-((2-(3,3-dinitroazetidin-1-yl)-2-oxoethyl)thio)propanamido)acetic acid] formation at 20 uM by LC-MS/MS method; type: ADME, tissue-based
[28] = Ratio of drug level in human blood to human plasma at 1 uM after 30 mins; type: ADME; settings: whole blood
[29] = Ratio of drug level in dog blood to dog plasma at 1 uM after 30 mins; type: ADME, Canis lupus familiaris; settings: whole blood
Plasma [30] = test: AUC (0 to infinity) in Wistar Hanover rat plasma at 10 mg/kg, iv administered as single dose; type: ADME, organism-based; design: time infinity, dose 10 mg/kg, route intravenous; settings: in vivo
Blood [31] = test: Drug metabolism in human whole blood assessed as [(S)-2-amino-5-(((R)-1-((carboxymethyl)amino)-3-((2-(3-(hydroxyimino)azetidin-1-yl)-2-oxoethyl)thio)-1-oxopropan-2-yl)amino)-5-oxopentanoic acid] formation at 20 uM by LC-MS/MS method; type: ADME, tissue-based
Blood [32] = test: Retention time in human whole blood in presence of 0.1% formic acid in water at 20 uM by LC-MS/MS method; type: ADME, tissue-based
[33] = Drug excretion in Wistar Hanover rat feces at 10 mg/kg, iv administered as single dose measured on day 7; type: ADME, organism-based; design: dose 10 mg/kg, route intravenous; settings: faeces, read-out: Drug excretion
Blood [34] = test: Drug level in Wistar Hanover rat blood at 10 mg/kg, iv administered as single dose after 168 hrs relative to total radioactivity; type: ADME, organism-based; design: dose 10 mg/kg, route intravenous; settings: in vivo
[35] = Drug level in Wistar Hanover rat bile at 10 mg/kg, iv administered as single dose after 24 hrs; type: ADME, organism-based; design: dose 10 mg/kg, route intravenous; settings: in vivo
[36] = Binding affinity to dog hemoglobin assessed as protein bound compound level at 1 uM; type: ADME, Canis lupus familiaris; settings: read-out: PB (converted)
Blood [37] = test: Drug metabolism in rat whole blood assessed as [(S)-2-amino-5-(((R)-1-((carboxymethyl)amino)-3-((2-(3-nitroazetidin-1-yl)-2-oxoethyl)thio)-1-oxopropan-2-yl)amino)-5-oxopentanoic acid] formation at 20 uM by LC-MS/MS method; type: ADME, tissue-based
Blood [38] = test: Drug metabolism in human whole blood assessed as [(S)-2-amino-5-(((R)-1-((carboxymethyl)amino)-3-((2-(3-nitroazetidin-1-yl)-2-oxoethyl)thio)-1-oxopropan-2-yl)amino)-5-oxopentanoic acid] formation at 20 uM by LC-MS/MS method; type: ADME, tissue-based
[39] = Ratio of drug level in monkey blood to monkey plasma at 20 uM after 30 mins; type: ADME, Macaca mulatta; settings: rhesus monkey, whole blood
[40] = Ratio of drug level in monkey blood to monkey plasma at 1 uM after 30 mins; type: ADME, Macaca mulatta; settings: rhesus monkey, whole blood
[41] = Ratio of drug level in rat blood to rat plasma at 1 uM after 30 mins; type: ADME, cell-free; settings: whole blood
Blood [42] = test: Retention time in human whole blood at 20 uM by LC-MS/MS method; type: ADME, tissue-based
[43] = Half life in Wistar Hanover rat plasma at 10 mg/kg, iv administered as single dose; type: ADME, organism-based; design: dose 10 mg/kg, route intravenous
Plasma [44] = test: AUC (0 to t) in Wistar Hanover rat plasma at 10 mg/kg, iv administered as single dose; type: ADME, organism-based; design: dose 10 mg/kg, route intravenous; settings: in vivo
[45] = Ratio of drug level in human blood to human plasma at 20 uM after 30 mins; type: ADME; settings: whole blood
[46] = Volume of distribution in Wistar Hanover rat plasma at 10 mg/kg, iv administered as single dose; type: ADME, organism-based; design: dose 10 mg/kg, route intravenous
Blood [47] = test: Drug metabolism in rat whole blood assessed as [(R)-2-amino-3-((2-(3-nitroazetidin-1-yl)-2-oxoethyl)thio)propanoic acid] formation at 20 uM by LC-MS/MS method; type: ADME, tissue-based
Blood [48] = test: Retention time in rat whole blood in presence of 0.1% formic acid in water at 20 uM by LC-MS/MS method; type: ADME, tissue-based
Blood [49] = test: Drug level in Wistar Hanover rat blood at 10 mg/kg, iv administered as single dose after 24 hrs; type: ADME, organism-based; design: dose 10 mg/kg, route intravenous; settings: in vivo
Blood [50] = test: Retention time in human whole blood in presence of 0.1% formic acid in acetonitrile at 20 uM by LC-MS/MS method; type: ADME, tissue-based
[51] = Binding affinity to monkey hemoglobin assessed as protein bound compound level at 20 uM; type: ADME, Macaca mulatta; settings: rhesus monkey, read-out: PB (converted)
[52] = Half life in Wistar Hanover rat blood at 10 mg/kg, iv administered as single dose; type: ADME, organism-based; design: dose 10 mg/kg, route intravenous; settings: whole blood
Blood [53] = test: Drug level in Wistar Hanover rat blood at 10 mg/kg, iv administered as single dose after 168 hrs; type: ADME, organism-based; design: dose 10 mg/kg, route intravenous; settings: in vivo
Blood [54] = test: Drug metabolism in human whole blood assessed as [(S)-2-amino-5-(((R)-1-((carboxymethyl)amino)-3-((2-(3,3-dinitroazetidin-1-yl)-2-oxoethyl)thio)-1-oxopropan-2-yl)amino)-5-oxopentanoic acid] formation at 20 uM by LC-MS/MS method; type: ADME, tissue-based
Blood [55] = test: Drug metabolism in rat whole blood treated with 20 uM RRx-001 assessed as compound formation by LC-MS/MS method; type: ADME, tissue-based
Blood [56] = test: Drug metabolism in human whole blood treated with 20 uM RRx-001 assessed as compound formation by LC-MS/MS method; type: ADME, tissue-based

Q: Which results are given for O=C(CBr)N1CC([N+](=O)[O-])([N+](=O)[O-])C1 [NIBROZETONE]?
A: Stability [1]: Stable; Ratio (Nucleic Acid): 222; Drug metabolism (Blood [2]): metabolite_detected; dose excreted at 168 h [3]: 36.3%; dose excreted [4]: 26%; fraction unbound at 20 µM [5]: 0.78; dose excreted [6]: 0.3%; Drug metabolism (Blood [7]): metabolite_detected; blood plasma ratio at 0.5 h, 20 µM [8]: 4; Retention_time (Blood [9]): 15.4 min; fraction unbound at 1 µM [10]: 0.31; Stability [11]: Stable; fraction unbound at 1 µM [12]: 0.902; Retention_time (Blood [13]): 15.1 min; Drug metabolism (Blood [14]): metabolite_detected; Drug metabolism (Blood [15]): metabolite_detected; fraction unbound at 20 µM [16]: 0.21; Drug metabolism (Blood [17]): metabolite_detected; fraction unbound at 1 µM [18]: 0.71; Drug metabolism (Blood [19]): metabolite_detected; Drug metabolism (Blood [20]): metabolite_detected; Drug metabolism (Blood [21]): metabolite_detected; blood plasma ratio at 0.5 h, 20 µM [22]: 1.2; AUCt (Blood [23]): 14900000 ngequiv.hr/g; blood plasma ratio at 0.083 h [24]: 12.4; dose excreted [25]: 1.5%; Vd [26]: 0.084 L/kg; Drug uptake (Stomach): Not Active; Drug metabolism (Blood [27]): metabolite_detected; blood plasma ratio at 0.5 h, 1 µM [28]: 1; blood plasma ratio at 0.5 h, 1 µM [29]: 0.83; AUC (Plasma [30]): 200000 ngequiv.hr/g; Drug metabolism (Blood [31]): metabolite_detected; Retention_time (Blood [32]): 12.8 min; dose excreted [33]: 0.06%; Drug uptake (Blood [34]): 61.8%; Drug uptake [35]: Not Active; fraction unbound at 1 µM [36]: 0.77; Drug metabolism (Blood [37]): metabolite_detected; Drug metabolism (Blood [38]): metabolite_detected; blood plasma ratio at 0.5 h, 20 µM [39]: 1.5; blood plasma ratio at 0.5 h, 1 µM [40]: 0.82; blood plasma ratio at 0.5 h, 1 µM [41]: 2.1; Retention_time (Blood [42]): 15.4 min; half-life [43]: 66.1 h; AUCt (Plasma [44]): 160000 ngequiv.hr/g; blood plasma ratio at 0.5 h, 20 µM [45]: 0.99; Vd [46]: 0.926 L/kg; Drug metabolism (Blood [47]): metabolite_detected; Retention_time (Blood [48]): 12.8 min; Drug uptake (Blood [49]): 76500 ngequiv/g; Retention_time (Blood [50]): 15.1 min; fraction unbound at 20 µM [51]: 0.8; half-life [52]: > 168 h; Drug uptake (Blood [53]): 69600 ngequiv/g; Drug metabolism (Blood [54]): metabolite_detected

Q: Which Retention_time (Blood [13]) does the source give for N[C@@H](CSCC(=O)N1CC([N+](=O)[O-])([N+](=O)[O-])C1)C(=O)NCC(=O)O here?
A: 6.2 min

Q: And the Retention_time (Blood [32])?
A: 8 min

Q: And the Drug metabolism (Blood [55])?
A: metabolite_detected

Q: And the Drug metabolism (Blood [56])?
A: metabolite_detected

Q: What about the Retention_time (Blood [48]) of the same compound?
A: 8 min

Q: And the Retention_time (Blood [50])?
A: 6.2 min
